Reference: patent US20080319001A1, “Cancer Treatment Using Specific 3,6,9-Substituted Acridines” (priority 2005, published 2008)

Legend:
[1] = tested on: A549-derived xenografts; assay: A549 xenograft combination study; format: in vivo, mouse; conditions: single agent (AS1410 1 mg/kg or cisplatin 6 mg/kg), after approximately 60 days
Procedure: AS1410 was reconstituted in 0.9% saline B.P. to the required final concentration (0.331 and 0.0993) mg/ml of AS1410 succinate salt for intravenous administration).
The xenografts were prepared from the lung carcinoma A549 (ATCC Number CCL-185). Cells were grown in accordance with standard operating procedures and established methodology for this cell line to provide 5×10^6 cells per mouse.
A549-derived xenografts were established in 50 female nu/nu MF1 mice respectively by subcutaneous injection into the right flank of each mouse (5×10^6 cells in 100 μl phosphate buffered saline).
Animals were checked regularly until visible tumours appeared. Tumours were then measured in accordance with the relevant SOP regularly and tumour volume calculated using the formula: […]
Once the tumours were established, the mice were allocated into groups of 9 mice using a randomization procedure based on stratified xenograft volume.
Day 0 is defined as the day on which the average tumour volume is between 0.04 to 0.1 cm^3. Relative tumour volume on Day 0 is defined as 1.
Each mouse was observed and tumours measured until the xenografts tripled (3V0) in volume compared with volume on the day of treatment (V0). The elapsed period is the volume tripling time (VTT).
AS1410 was given by slow bolus intravenous injection. For AS1410 a dose volume 5 μl/g bodyweight was used. Control mice were untreated. […]

[2] = tested on: DU145 xenografts; assay: DU145 xenograft efficacy study; format: in vivo, mouse
Procedure: The mouse was selected because it is a rodent species and is internationally accepted as the species of choice for human xenograft studies. The nu/nu MF1 strain was selected.
A high dose level of 1 mg/kg given once daily for 10 days was selected for this study. Low and intermediate dose levels of 0.3 and 0.6 mg/kg/day were also selected to aid characterisation of the dose-response profile.
The test articles were reconstituted in 0.9% physiological saline B.P. to the required final concentrations; and where necessary, an organic solvent (e.g. DMSO or ethanol) was used to aid solubilisation of some materials.
Treated mice received a bolus intravenous injection of the test formulation once daily for two weeks (week-days only). A dose-volume of […] bodyweight was be used. Control mice were untreated.
A total of 175 female MF1 mice were obtained from the Biological Research Facility, SGHMS, London. Animals were in a weight range of 26-30 g (6 to 8 weeks of age). Mice were individually identified using a subcutaneously implanted microchip.
The xenografts were prepared from the DU145 cell line (ATCC HTB-81). Cells were grown in accordance with established methodology for this cell line to provide 5×10^6 cells per mouse.
Xenografts were established in the MF1 mice by subcutaneous injection into the right flank of each mouse (5×10^6 cells in […] phosphate buffered saline).
Animals were checked regularly until visible tumours appeared. Tumours were then measured in accordance with the relevant SOP three times per week and tumour volume calculated using the formula: […]
Measurements commenced approximately one week before the day of treatment (Day 0) when the xenograft reached an approximate volume of 0.05 cm^3 (e.g. dimensions of approximately 5×5×4 mm).
Once the tumours were established, mice were allocated into groups of 5 mice using a randomization procedure based on stratified xenograft volume.
Day 0 is defined as the day on which the average tumour volume is between 0.12 to 0.16 cm^3. Relative tumour volume on Day 0 is defined as 1.
Each mouse was observed and tumours measured until the xenografts tripled in volume (3Vo) compared with volume on the day of treatment (Vo). The elapsed period was the volume tripling time (VTT).

[3] = tested on: human telomerase; conditions: Read et al. 2001; Harrison et al. 2003; Schultes et al. 2004; cited from earlier work
[4] = Metabolic stability, cytosol; format: in vitro ADME

Compound	relative tumour volume [1]	T-C value ([2]; 0.3 mg/kg/day iv) [days]	T-C value ([2]; 0.6 mg/kg/day iv) [days]	T-C value ([2]; 1 mg/kg/day iv) [days]	xenograft response ([2]; 0.3, 0.6 and 1.0 mg/kg/day iv, compared with BSG01)	in vitro inhibitory activity against human telomerase [3]	Cytosol (t = 30) ([4]; t = 30)	Cytosol (t = 60) ([4]; t = 60)
O=C(CCN1CCCC1)Nc1ccc2c(NCc3ccc(F)c(F)c3)c3ccc(NC(=O)CCN4CCCC4)cc3nc2c1 [BSG17, N-(9-(3,4-Difluoro-benzylamino)-6-(3-pyrolidin-1-yl-propionamide)-acridin-3-yl)-3-pyrrolidin-1-yl-propionamide]	about 5	7	11.6	11	clear dose response and effects at all three dose levels	–	–	–
CN(C)c1ccc(Nc2c3ccc(NC(=O)CCN4CCCC4)cc3nc3cc(NC(=O)CCN4CCCC4)ccc23)cc1 [BSG01]	–	–	–	–	–	potent in vitro inhibitory activity	3.5	6.3
